Results from patent publication US8012944B2, “Method for treating cancer using IAP antisense oligomer and chemotherapeutic agent” (Pharmascience Inc., priority 2003, dated 2011).

Legend:
[1] = test system: XIAP mRNA; assay: XIAP mRNA knock-down in H460 cells (real-time RT-PCR / TaqMan); format: cell-based, human; conditions: real-time PCR, 1.2 μM, 6 hours of transfection (FIG. 6)
In short: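 NCI-H460 cells transfected with phosphorothioate antisense oligonucleotides via Lipofectamine 2000; RNA isolated after 6 h treatment. XIAP mRNA quantified by one-step TaqMan real-time RT-PCR, comparative Ct (threshold 30× baseline SD), normalized to GAPDH and expressed relative to untreated control cells.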

[2] = test system: H460 tumors; assay: Histopathology and ubiquitin immunohistochemistry of H460 tumors; format: in vivo, SCID-RAG2 mice; conditions: 15 mg/kg; day 21 or 24
Experimental: To evaluate whether XIAP AS oligonucleotide administration results in direct tumor cell kill, we examined the histology of tumors after treatment both for morphology and ubiquitin immunostaining (FIGS. 19A and 19B). At day 21 or 24 post-tumor inoculation, tumors treated with 15 mg/kg of G4 AS oligonucleotides, SC oligonucleotides, or saline control were excised, sectioned, and stained with hematoxylin and eosin.
The degradation of proteins is largely ubiquitin-proteasome-dependent; increased ubiquitin expression has been observed during apoptosis. Thus, we examined the ubiquitin expression in the tumors sections used for hematoxylin and eosin staining.
Mouse tumors were collected on day 21 or 24 post-tumor inoculation and treatment. One portion of the tumor tissue was fixed in formalin. Paraffin-embedded tissues were sectioned and subjected to gross histopathology using hematoxylin and eosin staining and immunohistochemistry for ubiquitin expression. The other portion of the tumor was homogenized in lysis buffer for western blot analysis (see above).

## GCTGAGTCTCCATATTGCC [G4 AS] (chemistry not given here)
[1]
  reduction of XIAP mRNA level compared to untreated control: 55%
[2]
  tumor histology (hematoxylin and eosin): increased number of dead cells
